US20100249076A1, “PRODRUGS OF 9-AMINOMETHYL TETRACYCLINE COMPOUNDS” (priority 2003, published 2010)
Read-outs that look alike come from different tables or passages of the source.

What was measured:
Format in all cases: in vivo
S. pneumoniae 157E = assay: Oral efficacy (PD50) in mice with acute systemic infection by susceptible S. pneumoniae; details: Streptococcus pneumoniae, read-out: PD50, S. pneumoniae 157E
Method: (§1) Relative to linezolid, the PD50 values for a number of the compounds were within an 2-fold range against the resistant organism. Compounds with PD50 values of less than 7 mg/kg/dose are indicated with “***.” Compounds with PD50 values of less than 14 mg/kg/dose but greater than 7 mg/kg/dose are indicated with “**.” Compounds with PD50 values of greater than 14 mg/kg/dose, but less than 21 mg/kg/dose are indicated with “*.” Compounds with PD50 values greater than 21 mg/kg/dose are indicated with “−”

S. pneumoniae 700905 = assay: Oral efficacy (PD50) in mice with acute systemic infection by resistant S. pneumoniae; details: Streptococcus pneumoniae, resistant S. pneumoniae 700905
Method: as §1

[1] = test system: S. pneumoniae 157E (tet^S); assay: Oral efficacy screen, murine model of S. pneumoniae systemic infection (survival); details: Streptococcus pneumoniae, 1 h, read-out: % survival at 10 (po) mg/kg
Method: The following example was used to assess the oral bioavailability of compounds of the invention in an oral efficacy screen in murine models of infection. The compounds were screened by administering a single 10 mg/kg oral dose to mice 1 hour after administration of a lethal intraperitoneal inoculum of S. pneumoniae 157E (tet^S).
In Table 1 below, compounds with a survival rate of ≧80% are indicated with ‘***”; compounds with a survival rate of ≧60% are indicated with ‘**” and compounds with a survival rate of […] are indicated with ‘*’. Compounds with a survival rate of less than 20% are indicated with ‘−’.

[2] = mice, oral, acute systemic infection, susceptible S. pneumoniae 157E

Row | SMILES | ED50 (S. pneumoniae 157E; 157E, po) | ED50 (S. pneumoniae 700905) | responders at 10 mg/kg [1] | ED50 (S. pneumoniae 157E; [2])
1 | CN(C)c1cc(CN(CC(C)(C)C)C(=O)OCOC(=O)C(C)(C)C)c(O)c2c1C[C@H]1C[C@H]3[C@H](N(C)C)C(O)=C(C(N)=O)C(=O)[C@@]3(O)C(O)=C1C2=O [A] | < 7 mg/kg | < 7 mg/kg | > 80% | 
2 | CC1(C)S[C@@H]2[C@H](NC(=O)[C@H](N)c3ccccc3)C(=O)N2[C@H]1C(=O)O [Ampicillin, reference compound] |  |  |  | 14 to 21 mg/kg
3 | CC[C@H]1OC(=O)[C@H](C)[C@@H](O[C@H]2C[C@@](C)(OC)[C@@H](O)[C@H](C)O2)[C@H](C)[C@@H](O[C@@H]2O[C@H](C)C[C@H](N(C)C)[C@H]2O)[C@](C)(O)C[C@@H](C)CN(C)[C@H](C)[C@@H](O)[C@]1(C)O [Azithromycin, reference compound] |  |  |  | 7 to 14 mg/kg
4 | CC(=O)OCOC(=O)N(Cc1cc(N(C)C)c2c(c1O)C(=O)C1=C(O)[C@]3(O)C(=O)C(C(N)=O)=C(O)[C@@H](N(C)C)[C@@H]3C[C@@H]1C2)CC(C)(C)C [B] | 7 to 14 mg/kg | 7 to 14 mg/kg | > 80% | 
5 | CN(C)c1cc(CN(CC(C)(C)C)C(=O)OCOC(=O)c2ccccc2)c(O)c2c1C[C@H]1C[C@H]3[C@H](N(C)C)C(O)=C(C(N)=O)C(=O)[C@@]3(O)C(O)=C1C2=O [D] | < 7 mg/kg |  | > 0% | 
6 | C[C@H]1c2cccc(O)c2C(=O)C2=C(O)[C@]3(O)C(=O)C(C(N)=O)=C(O)[C@@H](N(C)C)[C@@H]3[C@@H](O)[C@@H]21 [Doxycycline, reference compound] |  |  |  | < 7 mg/kg
7 | CN(C)c1cc(CN(CC(C)(C)C)C(=O)OCOC(=O)CCc2ccccc2)c(O)c2c1C[C@H]1C[C@H]3[C@H](N(C)C)C(O)=C(C(N)=O)C(=O)[C@@]3(O)C(O)=C1C2=O [E] |  |  | > 0% | 
8 | CN(C)c1cc(CN(CC(C)(C)C)C(=O)OCOC(=O)C2CCCCC2)c(O)c2c1C[C@H]1C[C@H]3[C@H](N(C)C)C(O)=C(C(N)=O)C(=O)[C@@]3(O)C(O)=C1C2=O [F] | < 7 mg/kg | 14 to 21 mg/kg | > 60% | 
9 | COc1ccc(C(=O)OCOC(=O)N(Cc2cc(N(C)C)c3c(c2O)C(=O)C2=C(O)[C@]4(O)C(=O)C(C(N)=O)=C(O)[C@@H](N(C)C)[C@@H]4C[C@@H]2C3)CC(C)(C)C)cc1 [G] | 7 to 14 mg/kg |  | > 60% | 
10 | CN(C)c1cc(CN(CC(C)(C)C)C(=O)OCOC(=O)CC(C)(C)C)c(O)c2c1C[C@H]1C[C@H]3[C@H](N(C)C)C(O)=C(C(N)=O)C(=O)[C@@]3(O)C(O)=C1C2=O [H] | < 7 mg/kg | 7 to 14 mg/kg | > 80% | 
11 | CC(OC(=O)N(Cc1cc(N(C)C)c2c(c1O)C(=O)C1=C(O)[C@]3(O)C(=O)C(C(N)=O)=C(O)[C@@H](N(C)C)[C@@H]3C[C@@H]1C2)CC(C)(C)C)OC(=O)C(C)(C)C (some centres unmarked) [I] |  | 7 to 14 mg/kg | > 80% | 
12 | COCC(=O)OCOC(=O)N(Cc1cc(N(C)C)c2c(c1O)C(=O)C1=C(O)[C@]3(O)C(=O)C(C(N)=O)=C(O)[C@@H](N(C)C)[C@@H]3C[C@@H]1C2)CC(C)(C)C [J] |  |  | > 0% | 
13 | COCCC(=O)OCOC(=O)N(Cc1cc(N(C)C)c2c(c1O)C(=O)C1=C(O)[C@]3(O)C(=O)C(C(N)=O)=C(O)[C@@H](N(C)C)[C@@H]3C[C@@H]1C2)CC(C)(C)C [K] | < 7 mg/kg | 14 to 21 mg/kg | > 80% | 
14 | COCCOCC(=O)OCOC(=O)N(Cc1cc(N(C)C)c2c(c1O)C(=O)C1=C(O)[C@]3(O)C(=O)C(C(C)=O)=C(O)[C@@H](N(C)C)[C@@H]3C[C@@H]1C2)CC(C)(C)C [L] |  |  | > 60% | 
15 | CC(=O)NC[C@H]1CN(c2ccc(N3CCOCC3)c(F)c2)C(=O)O1 [Linezolid, reference compound] |  | 7 to 14 mg/kg |  | < 7 mg/kg
16 | CN(C)c1cc(CN(CC(C)(C)C)C(=O)OCOC(=O)c2ccc(C(F)(F)F)cc2)c(O)c2c1C[C@H]1C[C@H]3[C@H](N(C)C)C(O)=C(C(N)=O)C(=O)[C@@]3(O)C(O)=C1C2=O [M] |  |  | > 80% | 
17 | CN(C)c1ccc(O)c2c1C[C@H]1C[C@H]3[C@H](N(C)C)C(O)=C(C(N)=O)C(=O)[C@@]3(O)C(O)=C1C2=O [Minocycline, reference compound] |  |  |  | 7 to 14 mg/kg
18 | CN(C)c1cc(CN(CC(C)(C)C)C(=O)OCOC(=O)c2c(F)cccc2F)c(O)c2c1C[C@H]1C[C@H]3[C@H](N(C)C)C(O)=C(C(N)=O)C(=O)[C@@]3(O)C(O)=C1C2=O [N] |  | 14 to 21 mg/kg | > 80% | 
19 | CN(C)c1cc(CN(CC(C)(C)C)C(=O)OCOC(=O)Cc2ccccc2)c(O)c2c1C[C@H]1C[C@H]3[C@H](N(C)C)C(O)=C(C(N)=O)C(=O)[C@@]3(O)C(O)=C1C2=O [O] |  | 7 to 14 mg/kg | > 60% | 
20 | CCC(=O)OCOC(=O)N(Cc1cc(N(C)C)c2c(c1O)C(=O)C1=C(O)[C@]3(O)C(=O)C(C(N)=O)=C(O)[C@@H](N(C)C)[C@@H]3C[C@@H]1C2)CC(C)(C)C [P] |  | 14 to 21 mg/kg | > 80% | 
21 | CCCC(=O)OCOC(=O)N(Cc1cc(N(C)C)c2c(c1O)C(=O)C1=C(O)[C@]3(O)C(=O)C(C(N)=O)=C(O)[C@@H](N(C)C)[C@@H]3C[C@@H]1C2)CC(C)(C)C [Q] |  | 14 to 21 mg/kg | > 80% | 
22 | CC(C)C(=O)OCOC(=O)N(Cc1cc(N(C)C)c2c(c1O)C(=O)C1=C(O)[C@]3(O)C(=O)C(C(N)=O)=C(O)[C@@H](N(C)C)[C@@H]3C[C@@H]1C2)CC(C)(C)C [R] |  | 7 to 14 mg/kg | > 80% | 
